In patent US8585782B2, “Use of specific bis(biphenyl)triazine derivatives and mixtures thereof as UV absorbers” (BASF SE, priority 2010, dated 2013):

Assay: Measurement of solubility in capric/caprylic triglyceride
Assay type: physicochemical
Conditions: commercial triazine derivatives, state-of-the-art comparison

| SMILES | solubility in the cosmetic oil capric/caprylic triglyceride [%] |
| --- | --- |
| CCCCC(CC)COc1ccc(-c2nc(-c3ccc(OC)cc3)nc(-c3ccc(OCC(CC)CCCC)cc3O)n2)c(O)c1 (centres unmarked) [Tinosorb S] | 6 |
| CCCCC(CC)COC(=O)c1ccc(Nc2nc(Nc3ccc(C(=O)OCC(CC)CCCC)cc3)nc(Nc3ccc(C(=O)OCC(CC)CCCC)cc3)n2)cc1 (centres unmarked) [EHT, Ethylhexyl Triazone] | 3 |
